In one series the test system is NCIH1688 cells. The experiment in a line: Transplanted tumor from NCIH1688 cells alone (not expressing Trop-2). Type of series: in vivo, BALB/c-nu/nu mice. The following applies: hRS7-VK-PTX 10 mg/kg, hRS7-VK-MMAE 3 mg/kg. An excerpt: Five-week-old female athymic BALB/c nu/nu mice were purchased from Charles River Company (Shanghai, China), and mice were randomly divided into 5-6 mice/group. Animal handling and procedures were approved and performed in accordance with the requirements of the Institutional Animal Care and Use Committee (IACUC) of Shanghai Institute of Materia Medica, Chinese Academy of Sciences. All models were inoculated subcutaneously on the side of mice. BXPC-3, HCC1806 and NCIH1688 cells were established by injecting and homogenizing 5 × 10^6 cells in Matrigel matrix. COLO205 cells were established by injecting and suspending 1 × 10^7 cells in Matrigel matrix. After the tumor volume reached about 200 mm^3, the tumor-bearing mice were randomly divided into treatment groups and a control group according to the tumor volume. Each drug was administered intraperitoneally. […] The percentage of inhibition was calculated by the following formula: (1-average tumor volume of the treatment group/average tumor volume of the control group)×100%. Toxicity of the different treatment groups was assessed by monitoring weight loss.
A mixture of Trop-2-positive tumor cells BXPC-3 and Trop-2-negative tumor cells NCIH1688 or NCIH1688 cells alone were inoculated into BALB/c-nu/nu mice (FIG. 1e, right panel), and the “bystander effect” of hRS7-VK-PTX was detected in a mouse transplanted tumor model.

For series [1], the system named is MDA-MB-231 or CFPAC-1 cells. The experiment in a line: Detection of ADC endocytosis rate by flow cytometry. The series is classed as cell-based. To be noted: Trop-2 expressing cells, 5 µg/mL ADC, 37° C. As to the method: To assess the endocytosis rate of ADC, MDA-MB-231 or CFPAC-1 cells (1 × 10^6) were incubated with 5 µg/mL of ADC samples in a staining medium for 30 min on ice, and washed twice, and then it was placed in a fresh complete medium. Internalization was initiated in a humidified chamber at 37° C. After the incubation, cells were washed twice with an ice-cold staining medium and then stained with goat anti-human IgG-PE. Cells were analyzed by flow cytometry to detect the level of ADC remaining on the surface.
The internalization rate of ADC may affect its inhibitory efficiency against tumor cells.

The subject of a further series is Capan-1. The experiment in a line: Cell viability assay (CCK-8). The series is classed as cell-based. The following applies: ADCs; CCK-8, 96 hours; Cxoo-1 [sic], Pancreas; read-out: IC50 (95% Cl). The method in brief: (§1)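 Absorbance at 450 nm after CCK-8 addition gave percent growth relative to untreated cells, from which IC50 values were fitted on mean curves of two or three tests. Drug exposure lasted 96 hours at 37° C, 5% CO2, on cells plated at 3000-10000 per well.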

A further series has as its system NCI-H1688. The experiment in a line: Cell viability assay (CCK-8). Type of series: cell-based. To be noted: ADCs; CCK-8, 96 hours; cell 'HCl-11685' [sic], Lung; read-out: IC50 (95% Cl). The method in brief: as §1
A further series has as its system SKBR3. The experiment in a line: Cell viability assay (CCK-8). Type of series: cell-based. To be noted: ADCs; CCK-8, 96 hours; 'SKERS' [sic], Mammary; read-out: IC50 (95% Cl). In a few lines:
as §1

The subject of another series is MDA-MB-231. The experiment in a line: Cell viability assay (CCK-8). The series is classed as cell-based. To be noted: ADCs; CCK-8, 96 hours; cell 'SRM-K9-231' [sic], Mamary; read-out: IC50 (95% Cl). The method in brief:
as §1

The subject of a further series is COLO205. The experiment in a line: Cell viability assay (CCK-8). Type of series: cell-based. To be noted: ADCs; CCK-8, 96 hours; cell printed 'COXC28', Colon; read-out: IC50 (95% Cl). In a few lines:
as §1

The test system of a further series is BXPC-3. The experiment in a line: Cell viability assay (CCK-8). Type of series: cell-based. To be noted: ADCs; CCK-8, 96 hours; cell RMCA [sic], Pancreas; read-out: IC50 (95% Cl). In a few lines: as §1
A further series has as its system CFPAC-1. The experiment in a line: Cell viability assay (CCK-8). The series is classed as cell-based. The following applies: ADCs; CCK-8, 96 hours; cell CPAC-1 [sic], Pancreas; read-out: IC50 (95% Cl). The method in brief: as §1
A further series relates to SK-MES-1. The experiment in a line: Cell viability assay (CCK-8). Type of series: cell-based. To be noted: ADCs; CCK-8, 96 hours; cell 'SK-WSS-7' [sic], Lung; read-out: IC50 (95% Cl). The method in brief:
as §1

Another series has as its system HT29. The experiment in a line: Cell viability assay (CCK-8). The series is classed as cell-based. To be noted: ADCs; CCK-8, 96 hours; cell '3128' [sic], Colon; read-out: IC50 (95% Cl). In a few lines:
as §1

Series [2] in a line: Dose tolerability, single intravenous dose acute toxicity. The series is classed as in vivo. To be noted: BALB/c mice. Here is the method: Dose tolerability assay was performed in BALB/c mice (3 mice per dose). The drug was given in a single intravenous dose. The injection doses of hRS7-VK-PTX were 60, 80 and 100 mg/kg, and the injection doses of hRS7-VK-MMAE were 60 and 80 mg/kg, respectively. Toxicity was assessed by observing mouse behavior, weight loss and survival. The weight change rate (%) was calculated as: (body weight - body weight before treatment)/(body weight before treatment) × 100%.
The safety of relatively high doses of hRS7-VK-PTX in BALB/c mice was studied by an acute toxicity experiment with single intravenous administration in mice.

hRS7-VK-PTX: in the series with NCIH1688 cells, the “killing effect on transplanted tumors not expressing Trop-2” value was “had no such effect”. The internalization rate entry in [1] was “faster than hRS7-VK-MMAE and hRS7-VK-SN38”. Also, the IC50 in the series on Capan-1 was found to be 2.98 nM; in the series on NCI-H1688, 32.4 nM; in the series with SKBR3 it was 1.74 nM; in the series on MDA-MB-231 it was 1.59 nM; with COLO205 it was 4.52 nM; with BXPC-3, 0.633 nM. Further, the IC50 in the series with CFPAC-1 is 16.8 nM; with SK-MES-1, 10.1 nM; with HT29, 3.47 nM. The “toxicity or weight loss compared with placebo” value in series [2] (single 100 mg/kg intravenous dose) is on record as “no significant toxicity or weight loss”. For the same substance, the “maximum tolerated dose (MTD)” value in series [2] (single intravenous dose, highest dose 100 mg/kg) is given as “not reached”.

By IC50 is commonly meant the concentration needed to halve the response being measured.

These data come from patent publication US20230346969A1, “INTERMEDIATE FOR PREPARING ANTIBODY-DRUG CONJUGATE (ADC), PREPARATION METHOD THEREFOR, AND USE THEREOF” (priority 2020, published 2023).
